Measurements reported in the supplement of paper PMC10307832.

Compound: C1=CC=C2C(=C1)N=C(S2)C(C#N)C3=NC(=NC=C3)NCCC4=CN=CC=C4
Assay: relative viability (nuclei count vs DMSO), 5 days (fraction); higher = more cells survive
In short: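 Nuclei counted with MetaXpress define viability as the ratio of treated to vehicle wells, given as a median across plates. The lung cancer cell lines were in 1536-well plates, pinned with five √10-spaced library-drug doses and imaged at 4× after 5 days and Hoechst staining. Plates passed with control CV below 25% and at least one doubling.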

Cell Line | relative viability (0.005 µM) | relative viability (0.01581 µM) | relative viability (0.05 µM) | relative viability (0.1581 µM) | relative viability (0.5 µM)
201T | 0.963 | 0.876 | 1.01 | 1.03 | 0.89
A549 | 0.914 | 1.03 | 0.969 | 1.05 | 0.901
A-427 | 0.993 | 0.875 | 0.919 | 1.15 | 0.95
ABC-1 | 0.974 | 0.826 | 1.08 | 1.07 | 0.835
BEN | 0.864 | 0.908 | 0.97 | 1.04 | 1.08
CAL-12T | 1 | 0.912 | 0.962 | 1.07 | 0.798
COR-L23 | 0.944 | 1.13 | 1.05 | 1.2 | 0.884
COR-L 105 | 0.8 | 0.711 | 0.774 | 0.941 | 0.768
Calu-6 | 0.999 | 0.983 | 0.978 | 1.12 | 0.912
ChaGo-K-1 | 0.984 | 0.929 | 0.99 | 1.05 | 0.939
EBC-1 | 1.02 | 1.15 | 0.803 | 1.06 | 0.858
EKVX | 1.08 | 0.939 | 0.947 | 1.04 | 0.952
EMC-BAC-2 | 1.09 | 0.976 | 0.952 | 1.04 | 0.97
EPLC-272H | 0.915 | 0.882 | 0.958 | 1.11 | 0.895
H3255 | 1.04 | 0.922 | 0.964 | 1.06 | 0.981
HARA | 1.1 | 0.769 | 0.994 | 1.09 | 0.93
HCC-15 | 0.96 | 0.989 | 1.03 | 1.12 | 0.919
HCC-44 | 0.999 | 1.03 | 1.04 | 1.05 | 1
HCC-78 | 1.08 | 0.92 | 1.07 | 1.07 | 0.996
HCC-366 | 0.883 | 1.06 | 0.995 | 1.05 | 1.05
HCC-827 | 1.07 | 1.1 | 1.01 | 1.11 | 1.05
HOP-62 | 0.951 | 1.08 | 1.01 | 1.24 | 1.07
IA-LM | 0.834 | 1.19 | 0.997 | 1.02 | 0.762
LC-2-ad | 0.923 | 0.9 | 0.999 | 1.11 | 0.961
LCLC-97TM1 | 0.944 | 0.991 | 0.974 | 1.13 | 1.08
LCLC-103H | 0.928 | 0.952 | 0.955 | 1.07 | 0.947
LK-2 | 0.753 | 1.11 | 0.97 | 1.21 | 1.07

Cell Line | relative viability (0.005 µM) | relative viability (0.01581 µM) | relative viability (0.05 µM) | relative viability (0.1581 µM) | relative viability (0.5 µM)
LOU-NH91 | 0.954 | 0.875 | 0.815 | 1.02 | 0.916
LU99A | 0.779 | 0.995 | 0.877 | 1.04 | 0.972
LXF-289 | 0.925 | 1.09 | 0.968 | 1.06 | 0.948
NCI-H23 | 0.691 | 0.941 | 0.967 | 1.24 | 1.02
NCI-H322M | 0.745 | 0.839 | 0.924 | 0.951 | 0.914
NCI-H358 | 0.784 | 0.904 | 0.823 | 1.06 | 0.913
NCI-H441 |  | 1.12 | 1 | 1.27 | 0.871
NCI-H460 | 0.925 | 0.999 | 0.995 | 1.14 | 0.934
NCI-H520 | 0.847 | 0.973 | 0.953 | 0.968 | 0.96
NCI-H522 | 0.958 | 0.795 | 0.761 | 1.11 | 0.878
NCI-H596 | 0.791 | 0.962 | 1.01 | 1.07 | 0.928
NCI-H647 | 0.814 | 0.997 | 0.927 | 1.16 | 0.893
NCI-H650 | 0.86 | 0.782 | 1.04 | 1.14 | 1.02
NCI-H661 | 1.05 | 1.02 | 0.941 | 0.998 | 1.02
NCI-H727 | 0.904 | 0.903 | 0.832 | 1.13 | 0.78
NCI-H838 | 0.902 | 0.954 | 0.968 | 1.1 | 0.953
NCI-H1299 | 1.06 | 1.05 | 0.95 | 1.06 | 0.974
NCI-H1355 | 0.934 | 0.931 | 0.986 | 1.1 | 0.912
NCI-H1395 | 0.876 |  | 0.922 | 1.11 | 0.995
NCI-H1437 | 0.901 | 0.947 | 0.988 | 1.1 | 0.966
NCI-H1563 | 0.778 | 0.944 | 0.899 | 0.995 | 0.946
NCI-H1623 | 0.981 | 1.01 | 0.837 | 0.96 | 0.846
NCI-H1648 | 0.704 | 0.812 | 0.764 | 1.19 | 0.75
NCI-H1650 | 0.89 | 0.816 | 0.922 | 1 | 0.774
NCI-H1651 | 0.884 | 1.02 | 1.14 | 1.07 | 0.984
NCI-H1666 | 1.09 | 0.988 | 1.04 | 1.01 | 0.99
NCI-H1703 | 0.814 | 0.841 | 0.782 | 0.889 | 1.14

Cell Line | relative viability (0.005 µM) | relative viability (0.01581 µM) | relative viability (0.05 µM) | relative viability (0.1581 µM) | relative viability (0.5 µM)
NCI-H1734 | 0.787 | 0.91 | 0.963 | 1.14 | 0.871
NCI-H1755 | 1.03 | 1.15 | 0.985 | 1.09 | 0.99
NCI-H1792 |  | 0.747 | 0.924 | 1.2 | 0.693
NCI-H1793 | 0.716 | 0.906 | 0.852 | 1.05 | 0.925
NCI-H1915 | 0.925 | 1.03 | 0.969 | 1.1 | 0.94
NCI-H1944 | 0.914 | 0.956 | 0.958 | 1.03 | 0.951
NCI-H1975 | 0.858 | 0.912 | 1.01 | 1.1 | 0.653
NCI-H1993 | 0.901 | 0.882 | 0.929 | 1.04 | 0.842
NCI-H2009 | 0.938 | 1 | 1.04 | 1.04 | 1.02
NCI-H2023 | 0.887 | 1.02 | 0.889 | 1.16 | 0.935
NCI-H2085 | 0.928 | 0.983 | 0.977 | 1.01 | 0.998
NCI-H2087 | 0.993 | 1.03 | 1.03 | 1.13 | 0.981
NCI-H2126 | 0.912 | 0.977 | 0.946 | 1.05 | 0.864
NCI-H2170 | 0.894 | 0.991 | 0.949 | 1 | 0.913
NCI-H2228 | 0.839 | 1.12 | 0.962 | 1.17 | 0.956
NCI-H2342 | 0.82 | 0.978 | 0.874 | 1 | 0.938
NCI-H2347 | 1.11 | 1.09 | 0.995 | 1.05 | 1.02
NCI-H2405 | 0.981 | 0.943 | 0.962 | 0.988 | 0.981
NCI-H3122 | 0.958 | 0.977 | 0.98 | 1.03 | 0.991
PC-3 [JPC-3] | 0.85 | 0.966 | 1.01 | 1.15 | 1.07
PC-14 | 0.919 | 1.07 | 0.95 | 1.15 | 0.902
RERF-LC-KJ | 0.988 | 1.04 | 0.953 | 1.07 | 0.895
SK-LU-1 | 0.783 | 1.21 | 1.03 | 1.18 | 0.948
SK-MES-1 | 1.05 | 1.02 | 0.949 | 1.09 | 0.882
SW 900 | 0.899 | 0.845 | 0.885 | 1 | 0.823
SW 1573 | 0.855 | 1.11 | 0.792 | 1.13 | 0.978
